We go through 19 compounds from patent US7867992B2, “Substituted quinolones” (AiCuris GmbH & Co. KG, priority 2004, dated 2011).

For one data set, the system named is HCMV. Nature of the data set: Anti-HCMV cytopathogenicity test (CPE inhibition). The settings on record: for EC50: read-out: HCMV EC50; for SI HCMV (selectivity index): SI = CC50 (NHDF)/EC50 (HCMV). Type of data set: cell-based, human cytomegalovirus. The procedure:
(§1) Anti-HCMV (Anti-human Cytomegalovirus) Cytopathogenicity Tests
(§2) The test compounds are employed as 50 millimolar (mM) solutions in dimethyl sulfoxide (DMSO). Ganciclovir®, Foscamet® and Cidofovir® are used as reference compounds. After the addition of 2 μl of the 50, 5, 0.5 and 0.05 mM DMSO stock solutions respectively to 98 μl portions of cell culture medium in row 2 A-H for duplicate determinations, 1:2 dilutions are carried out with 50 μl portions of medium up to row 11 of the 96-well plate. The wells in rows 1 and 12 each contain 50 μl of medium. 150 μl of a suspension of 1×10^4 cells (human prepuce fibroblasts [NHDF]) are then pipetted into each of the wells (row 1=cell control) and, in rows 2-12, a mixture of HCMV-infected and uninfected NHDF cells (M.O.I.=0.001-0.002), i.e. 1-2 infected cells per 1000 uninfected cells. Row 12 (without substance) serves as virus control. The final test concentrations are 250-0.0005 μM. The plates are incubated at 37° C./5% CO2 for 6 days, i.e. until all the cells in the virus controls are infected (100% cytopathogenic effect [CPE]). The wells are then fixed and stained by adding a mixture of formalin and Giemsa's dye (30 minutes), washed with double-distilled water and dried in a drying oven at 50° C. The plates are then assessed visually using an overhead microscope (plaque multiplier from Technomara).
(§3) The following data can be obtained from the test plates: • CC50 (NHDF)=substance concentration in μM at which no visible cytostatic effects on the cells are evident by comparison with the untreated cell control; • EC50 (HCMV)=substance concentration in μM which inhibits the CPE (cytopathic effect) by 50% compared with the untreated virus control; • SI (selectivity index)=CC50 (NHDF)/EC50 (HCMV).
On the technique in general: Protection from cytopathic effect is a common read-out in antiviral testing.

Data set [1] can be described thus: Cytostatic effect on NHDF cells in the anti-HCMV cytopathogenicity test. The class given is cell-based. Conditions: NHDF cells (human prepuce fibroblasts), 6 days incubation, visual assessment, concentration at which no visible cytostatic effects are evident vs untreated cell control. The procedure:
as §1, §2, §3

[2] abbreviates: Human betaherpesvirus 5, 144 h, HCMV-infected NHDF cells, M.O.I. 0.001-0.002, 6 days, 50% inhibition of CPE vs untreated virus control.

Where a name gives a salt, the structure may show the parent alone. Read-outs that look alike come from different tables or passages of the source.

In general, EC50 refers to the concentration at which the effect is half-maximal. By CC50 is commonly meant the concentration that lowers cell viability or growth by half.

Turning to `COc1c(N2C[C@@H](C)N[C@@H](C)C2)c(F)cc2c(=O)c(C(=O)NCc3ccc(OC(F)(F)F)cc3C)cn(CC(F)(F)F)c12` [Example 52, 7-[(3RS,5SR)-3,5-Dimethylpiperazin-1-yl]-6-fluoro-8-methoxy-N-[2-methyl-4-(trifluoromethoxy)benzyl]-4-oxo-1-(2,2,2-trifluoroethyl)-1,4-dihydroquinoline-3-carboxamide], in the data set with HCMV (setting [2]), the EC50 was 19 nM. In the data set with HCMV, the “SI HCMV (selectivity index)” value was found to be 405. This compound had a half-maximal cytotoxic concentration (CC50) at 6 days in data set [1] of 7700 nM.

Consider `COc1c(N2C[C@@H](C)N[C@@H](C)C2)c(F)cc2c(=O)c(C(=O)NCc3ccc(OC(F)(F)F)cc3Cl)cn(CC(F)(F)F)c12` [Example 51], for which the concentration for a half-maximal effect (EC50) in the data set on HCMV (setting [2]) came out at 11 nM. Besides, the “SI HCMV (selectivity index)” value with HCMV is listed as 482. Also, it took 5300 nM to reach half-maximal cytotoxicity in data set [1] (CC50 at 6 days).

For `COc1c(N2CCN(CCC(N)=O)C(C)C2)c(F)cc2c(=O)c(C(=O)NCc3ccc(Cl)cc3Cl)cn(C3CC3)c12` (stereo not drawn) [Example 74], the EC50 in the data set on HCMV (setting [2]) was found to be 92 nM. The “SI HCMV (selectivity index)” value in the data set on HCMV was found to be 28. The compound also returned a half-maximal cytotoxic concentration (CC50) at 6 days in data set [1] of 2600 nM.

Consider `COc1c(N2C[C@@H](C)N(CC(=O)NS(C)(=O)=O)[C@@H](C)C2)c(F)cc2c(=O)c(C(=O)NCc3ccc(OC(F)(F)F)cc3C)cn(CC(F)(F)F)c12` [Example 68], for which the EC50 with HCMV (setting [2]) worked out at 2 nM. Besides, the “SI HCMV (selectivity index)” value in the data set on HCMV is given as 12000. Besides, in data set [1], the CC50 at 6 days came to 24000 nM.

Take `Cc1cc(Cl)ccc1CNC(=O)c1cn(C2CC2)c2c(Cl)c(N3CCN(CCOCCO)CC3)c(F)cc2c1=O` [Example 8, 8-Chloro-N-(4-chloro-2-methylbenzyl)-1-cyclopropyl-6-fluoro-7-{4-[2-(2-hydroxyethoxy)ethyl]piperazin-1-yl}-4-oxo-1,4-dihydroquinoline-3-carboxamide]: in the data set with HCMV (setting [2]), the concentration for a half-maximal effect (EC50) amounted to 190 nM. In addition, in the data set on HCMV, the “SI HCMV (selectivity index)” value is given as 41. It took 7700 nM to reach half-maximal cytotoxicity in data set [1] (CC50 at 6 days).

As for `COc1c(N2C[C@@H](C)N[C@@H](C)C2)c(F)cc2c(=O)c(C(=O)NCc3ccc(Cl)cc3Cl)cn([C@@H](C)C(F)(F)F)c12` [Example 45], the concentration giving a half-maximal response (EC50) with HCMV (setting [2]) was found to be 77 nM. The “SI HCMV (selectivity index)” value in the data set with HCMV stood at 31. The compound also came in with a 50% cytotoxic concentration (CC50) at 6 days in data set [1] of 2400 nM.

Take `COc1c(N2C[C@@H](C)N(C[C@@H](O)CO)[C@@H](C)C2)c(F)cc2c(=O)c(C(=O)NCc3ccc(Cl)cc3Cl)cn(C3CC3)c12` [Example 92]: the EC50 with HCMV (setting [2]) was found to be 31 nM. The “SI HCMV (selectivity index)” value with HCMV was found to be 171. In data set [1], this compound yielded a CC50 at 6 days of 5300 nM.

As for `COc1c(N2C[C@@H](C)N(CC(=O)N(C)C)[C@@H](C)C2)c(F)cc2c(=O)c(C(=O)NCc3ccc(Cl)cc3Cl)cn(CC(F)(F)F)c12` [Example 54], the EC50 in the data set on HCMV (setting [2]) was determined as 8.5 nM. Besides, the “SI HCMV (selectivity index)” value with HCMV is recorded as 2471. The compound also gave a CC50 at 6 days in data set [1] of 21000 nM.

Consider `COc1ccc(CNC(=O)c2cn(C3CC3)c3c(OC)c(N4C[C@@H](C)N[C@@H](C)C4)c(F)cc3c2=O)c(Cl)c1` [Example 22], for which the EC50 with HCMV (setting [2]) is 380 nM. For the same compound, the “SI HCMV (selectivity index)” value in the data set on HCMV is 22. For the same compound, it took 8400 nM to reach half-maximal cytotoxicity in data set [1] (CC50 at 6 days).

As to `C[C@@H]1CN(c2c(F)cc3c(=O)c(C(=O)NCc4ccc(Cl)cc4Cl)cn(C4CC4)c3c2Cl)C[C@H](C)N1` [Example 5, 8-Chloro-1-cyclopropyl-N-(2,4-dichlorobenzyl)-7-[(3RS,5SR)-3,5-dimethylpipierazin-1-yl]-6-fluoro-4-oxo-1,4-dihydroquinoline-3-carboxamide], in the data set on HCMV (setting [2]), the concentration for a half-maximal effect (EC50) turned out to be 230 nM. For the same compound, the “SI HCMV (selectivity index)” value with HCMV worked out at 26. Besides, in data set [1], it took 6000 nM to reach half-maximal cytotoxicity (CC50 at 6 days).

Regarding `COc1c(N2C[C@@H](C)N(CC(N)=O)[C@@H](C)C2)c(F)cc2c(=O)c(C(=O)NCc3ccc(Cl)cc3Cl)cn(CC(F)(F)F)c12` [Example 53, {(2RS,6SR)-4-[3-{[(2,4-Dichlorobenzyl)amino]carbonyl}-6-fluoro-8-methoxy-4-oxo-1-(2,2,2-trifluoroethyl)-1,4-dihydroquinolin-7-yl]-2,6-dimethylpiperazin-1-yl}acetamide], the EC50 with HCMV (setting [2]) worked out at 10 nM. For the same compound, the “SI HCMV (selectivity index)” value in the data set with HCMV was 430. The CC50 at 6 days in data set [1] worked out at 4300 nM.

Take `COc1c(N2C[C@@H](C)N[C@@H](C)C2)c(F)cc2c(=O)c(C(=O)NCc3ccc(Cl)cc3Cl)cn(C3CCC3)c12` [Example 40]: the concentration giving a half-maximal response (EC50) in the data set with HCMV (setting [2]) worked out at 110 nM. In addition, the “SI HCMV (selectivity index)” value with HCMV turned out to be 100. Further, the CC50 at 6 days in data set [1] is 11000 nM.

Regarding `COc1c(N2C[C@@H](C)N[C@@H](C)C2)c(F)cc2c(=O)c(C(=O)NCc3ccc(Cl)cc3Cl)cn(CC(F)F)c12` [Example 35], in the data set on HCMV (setting [2]), the concentration for a half-maximal effect (EC50) amounted to 36.5 nM. Moreover, in the data set with HCMV, the “SI HCMV (selectivity index)” value is listed as 138. Besides, in data set [1], half-maximal cytotoxicity (CC50 at 6 days) was put at 4800 nM.

For the compound `O=C(NCc1ccc(Cl)cc1Cl)c1cn(C2CC2)c2c(Cl)c(N3CCCN(CCO)CC3)c(F)cc2c1=O` [Example 1, 8-Chloro-1-cyclopropyl-N-(2,4-dichlorobenzyl)-6-fluoro-7-[4-(2-hydroxyethyl)-1,4-diazepan-1-yl]-4-oxo-1,4-dihydroquinoline-3-carboxamide], in the data set on HCMV (setting [2]), the concentration giving a half-maximal response (EC50) was found to be 200 nM. In addition, in the data set on HCMV, the “SI HCMV (selectivity index)” value was 12.5. The compound also showed a CC50 at 6 days in data set [1] of 2500 nM.

Regarding `COc1c(N2C[C@@H](C)N[C@@H](C)C2)c(F)cc2c(=O)c(C(=O)NCc3ccc(Cl)cc3Cl)cn([C@H]3C[C@H]3F)c12` [Example 34], the EC50 in the data set on HCMV (setting [2]) was determined as 19 nM. The “SI HCMV (selectivity index)” value in the data set with HCMV turned out to be 442. Half-maximal cytotoxicity in data set [1] (CC50 at 6 days) was put at 8400 nM.

On to `COc1c(N2C[C@@H](C)N[C@@H](C)C2)c(F)cc2c(=O)c(C(=O)NCc3ccc(C(F)(F)F)cc3C)cn(C3CC3)c12` [Example 24], for which, in the data set with HCMV (setting [2]), the EC50 was determined as 250 nM. In addition, in the data set on HCMV, the “SI HCMV (selectivity index)” value is reported as 19. Also, the 50% cytotoxic concentration (CC50) at 6 days in data set [1] was 4700 nM.

In the case of `COc1c(N2C[C@@H](C)N(C(=O)CN)[C@@H](C)C2)c(F)cc2c(=O)c(C(=O)NCc3ccc(Cl)cc3Cl)cn(C3CC3)c12` [Example 79, 1-Cyclopropyl-N-(2,4-dichlorobenzyl)-6-fluoro-7-[(3RS,5SR)-4-glycyl-3,5-dimethylpiperazin-1-yl]-8-methoxy-4-oxo-1,4-dihydroquinoline-3-carboxamide hydrochloride], the 50% effective concentration (EC50) with HCMV (Human betaherpesvirus 5, NHDF, 144 h) was determined as 53 nM. The “SI HCMV (selectivity index)” value with HCMV came out at 145. It took 7700 nM to reach half-maximal cytotoxicity in data set [1] (CC50 at 6 days).

With `COc1c(N2C[C@@H](C)N[C@@H](C)C2)c(F)cc2c(=O)c(C(=O)NCc3ccc(Cl)cc3Cl)cn(CCF)c12` [Example 28, N-(2,4-Dichlorobenzyl)-7-[(3RS,5RS-3,5-dimethyl)piperazin-1-yl]-6-fluoro-1-(2-fluoroethyl)-8-methoxy-4-oxo-1,4-dihydroquinoline-3-carboxamide hydroformate], in the data set on HCMV (setting [2]), the concentration for a half-maximal effect (EC50) is 100 nM. The “SI HCMV (selectivity index)” value in the data set on HCMV is on record as 63. The compound further displayed a cytotoxic concentration (CC50) at 6 days in data set [1] of 6100 nM.

As for `COc1c(N2C[C@@H](C)N[C@@H](C)C2)c(F)cc2c(=O)c(C(=O)NCc3ccc(Cl)cc3Cl)cn([C@@H]3C[C@@H]3F)c12` (mixture of isomers) [Example 16, N-(2,4-Dichlorobenzyl)-7-[(3RS,5SR)-3,5-dimethylpiperazin-1-yl]-6-fluoro-1-[(1R,2S)-2-fluorocyclopropyl]-8-methoxy-4-oxo-1,4-dihydroquinoline-3-carboxamide], the half-maximal effective concentration (EC50) with HCMV (setting [2]) was 100 nM. For the same compound, the “SI HCMV (selectivity index)” value in the data set with HCMV came to 78. In addition, the CC50 at 6 days in data set [1] came to 7800 nM.
